Tested on: high-risk patients undergoing CABG surgery with cardiopulmonary bypass
Assay: Cognitive function after CABG surgery, Mini Mental State Exam (MMSE), MEND-CABG trial
Assay type: in vivo, human
Details: for MMSE at POD 30, Mean / MMSE at POD 90, Mean: score 0-30
Experimental: The ability of P5P to protect against cognitive decline following CABG surgery was evaluated through the administration of a battery of validated psychometric tests pre-operatively, 4 days after surgery, 30 days after surgery, and 90 days after surgery.
A randomized, double-blind placebo-controlled, dose-ranging, parallel-arm multi-center study was undertaken, on high-risk patients undergoing CABG surgery with cardiopulmonary bypass.
Patients were identified as “high risk” if they had two or more of the following risk factors: • Age greater than 65 years; • Diabetes mellitus; • History of congestive heart failure; • History of a previous non-disabling stroke, transient ischemic attack, or carotid endarterectomy; • Prior CABG surgery; • Urgent CABG intervention defined as the need to stay in the hospital (although the patient may be operated on within a normal scheduling routine); • History of myocardial infarction that occurred more than 48 hours but less than 6 weeks prior to CABG surgery; and • Presence of at least one asymptomatic carotid artery stenosis (>50%) either in one or two carotid arteries.
Approximately 900 high risk pre-CABG patients in 42 different treatment centers in North America were screened and randomized to three groups of approximately 300 patients each, prior to their bypass surgery, as follows. Patients were either placed in a control group (placebo), treated with 250 mg/day of P5P, (250 mg/day), or treated with 750 mg/day of P5P (750 mg/day). The first dose of study medication was administered at 3-10 hours prior to CABG surgery. In the event of surgery delay or rescheduling, a second pre-operative dose of P5P was administered so that all patients received study medication 3-10 hours before surgery. Treatment continued for 30 days after surgery (post operative day (POD) 30). Patients received follow-up evaluations up to and including postoperative day (POD) 4, on POD 30 and on POD 90.
Patients were measured to assess change in cognitive function by the effects of P5P on neurological events following CABG surgery by methods of Mini Mental State Exam and psychometric testing (grooved pegboard).
MMSE is a well validated test to screen cognitive function (Folstein, J Psychiatr Res. 1975 Nov.;12(3):189-98). It measures orientation, registration (immediate memory), short-term (but not long-term) memory, and language functioning. The test is scored from 0-30, with scores of 25-30 considered normal, scores of 18-24 indicative of mild cognitive impairment, and scores under 17 indicative of severe impairment (Crum, JAMA. 1993 May 12;269(18):2386-91). This test is appropriate to indicate the presence of cognitive impairment.
The MMSE was administered to all 900 patients at screening, post-operative day (POD) 30, and POD 90. The MMSE score at POD 90 was analyzed using an analysis of covariance (ANOCO) model, adjusting for the MMSE score at screening. […] The results with P5P treatment (either 250 or 750 mg/day) were tabulated in Table 7, according to screening MMSE score.

Cc1ncc(COP(=O)(O)O)c(C=O)c1O [P5P, 3-hydroxy-2-methyl-5-[(phosphonooxy)methyl]-4-pyridine-carboxaldehyde]
MMSE at POD 90, Adjusted Mean (250 mg/day, MMSE screening = 25, ANOCO p 0.0067 vs placebo): 27.74 | MMSE at POD 90, Adjusted Mean (250 mg/day, MMSE screening = 26, ANOCO p 0.0074 vs placebo): 28.08 | MMSE at POD 90, Adjusted Mean (250 mg/day, MMSE screening = 27, ANOCO p 0.0116 vs placebo): 28.42 | MMSE at POD 90, Adjusted Mean (250 mg/day, MMSE screening = 28, ANOCO p 0.0579 vs placebo): 28.76 | MMSE at POD 90, Adjusted Mean (250 mg/day, MMSE screening = 29, ANOCO p 0.7654 vs placebo): 29.10 | MMSE at POD 90, Adjusted Mean (250 mg/day, MMSE screening = 30, ANOCO p 0.2726 vs placebo): 29.44 | MMSE at POD 30, Mean (250 mg/day): 28.57 | MMSE at POD 90, Mean (250 mg/day): 28.97 | MMSE at POD 90, Adjusted Mean (750 mg/day, MMSE screening = 25, ANOCO p 0.0664 vs placebo): 27.41 | MMSE at POD 90, Adjusted Mean (750 mg/day, MMSE screening = 26, ANOCO p 0.0701 vs placebo): 27.83 | MMSE at POD 90, Adjusted Mean (750 mg/day, MMSE screening = 27, ANOCO p 0.0875 vs placebo): 28.25 | MMSE at POD 90, Adjusted Mean (750 mg/day, MMSE screening = 28, ANOCO p 0.1926 vs placebo): 28.67 | MMSE at POD 90, Adjusted Mean (750 mg/day, MMSE screening = 29, ANOCO p 0.8350 vs placebo): 29.08 | MMSE at POD 90, Adjusted Mean (750 mg/day, MMSE screening = 30, ANOCO p 0.4317 vs placebo): 29.50 | MMSE at POD 30, Mean (750 mg/day): 28.79 | MMSE at POD 90, Mean (750 mg/day): 28.99 | protection against the decline in overall neurocognitive function associated with CABG surgery (MEND-CABG trial, 250 or 750 mg/day): provided protection | Improvements in MMSE score, 250 mg/day dose group compared with 750 mg/day dose group (in particular in patients with lower MMSE scores at screening): more significant

— patent US20070149485A1, “SELECTED DOSAGE FOR THE TREATMENT OF CARDIOVASCULAR AND RELATED PATHOLOGIES” (Medicure International, Inc., priority 2005, published 2007)
